Measured values taken from ChEMBL document CHEMBL3745645, “Synthesis, in vitro antitumor activity, dihydrofolate reductase inhibition, DNA intercalation and structure-activity relationship studies of 1,3,5-triazine analogues” (Bioorg Med Chem Lett, 2016).
Calls of active or inactive are those of the source. No cut-off for these calls is given here.

Legend:
Assay type in all cases: functional
[1] = Cytotoxicity against human OVCAR8 cells at 10 uM after 48 hrs by SRB assay; conditions: OVCAR-8, 48 h, read-out: GI
[2] = system: NCI-H522; assay: Cytotoxicity against human NCI-H522 cells at 10 uM after 48 hrs by SRB assay; conditions: NCI-H522, 48 h, read-out: GI
[3] = system: SK-MEL-2; assay: Cytotoxicity against human SK-MEL-2 cells at 10 uM after 48 hrs by SRB assay
[4] = system: K562; assay: Cytotoxicity against human K562 cells at 10 uM after 48 hrs by SRB assay; conditions: K562, 48 h, read-out: GI
[5] = Cytotoxicity against human RPMI8226 cells at 10 uM after 48 hrs by SRB assay; conditions: RPMI-8226, 48 h, read-out: GI
[6] = Cytotoxicity against human HCT15 cells at 10 uM after 48 hrs by SRB assay; conditions: HCT-15, 48 h, read-out: GI
[7] = system: A498; assay: Cytotoxicity against human A498 cells at 10 uM after 48 hrs by SRB assay; conditions: A498, 48 h, read-out: GI
[8] = Cytotoxicity against human DU145 cells at 10 uM after 48 hrs by SRB assay; conditions: DU-145, 48 h, read-out: GI
[9] = system: SK-MEL-5; assay: Cytotoxicity against human SK-MEL-5 cells at 10 uM after 48 hrs by SRB assay; conditions: SK-MEL-5, 48 h, read-out: GI
[10] = Cytotoxicity against human LOXIMVI cells at 10 uM after 48 hrs by SRB assay; conditions: LOX IMVI, read-out: GI
[11] = system: T47D; assay: Cytotoxicity against human T47D cells at 10 uM after 48 hrs by SRB assay
[12] = system: M14; assay: Cytotoxicity against human M14 cells at 10 uM after 48 hrs by SRB assay
[13] = system: SN12C; assay: Cytotoxicity against human SN12C cells at 10 uM after 48 hrs by SRB assay; conditions: read-out: GI
[14] = system: ACHN; assay: Cytotoxicity against human ACHN cells at 10 uM after 48 hrs by SRB assay; conditions: read-out: GI
[15] = Cytotoxicity against human Hs 578T cells at 10 uM after 48 hrs by SRB assay; conditions: read-out: GI
[16] = Cytotoxicity against human IGROV1 cells at 10 uM after 48 hrs by SRB assay; conditions: IGROV-1, 48 h, read-out: GI
[17] = system: CCRF-CEM; assay: Cytotoxicity against human CCRF-CEM cells at 10 uM after 48 hrs by SRB assay; conditions: read-out: GI
[18] = system: SK-MEL-28; assay: Cytotoxicity against human SK-MEL-28 cells at 10 uM after 48 hrs by SRB assay
[19] = Cytotoxicity against human HCT116 cells at 10 uM after 48 hrs by SRB assay; conditions: HCT-116, 48 h, read-out: GI
[20] = system: MDA-MB-435; assay: Cytotoxicity against human MDA-MB-435 cells at 10 uM after 48 hrs by SRB assay; conditions: MDA-MB-435, 48 h, read-out: GI
[21] = Cytotoxicity against human HOP92 cells at 10 uM after 48 hrs by SRB assay; conditions: HOP-92, 48 h, read-out: GI
[22] = system: 786-0; assay: Cytotoxicity against human 786-0 cells at 10 uM after 48 hrs by SRB assay; conditions: 786-0, 48 h, read-out: GI
[23] = system: HT-29; assay: Cytotoxicity against human HT-29 cells at 10 uM after 48 hrs by SRB assay; conditions: HT-29, 48 h, read-out: GI
[24] = system: MCF7; assay: Cytotoxicity against human MCF7 cells at 10 uM after 48 hrs by SRB assay; conditions: MCF7, 48 h, read-out: GI
[25] = Cytotoxicity against human Caki1 cells at 10 uM after 48 hrs by SRB assay; conditions: CAKI-1, 48 h, read-out: GI
[26] = Cytotoxicity against human OVCAR5 cells at 10 uM after 48 hrs by SRB assay; conditions: OVCAR-5, 48 h, read-out: GI
[27] = system: NCI-H226; assay: Cytotoxicity against human NCI-H226 cells at 10 uM after 48 hrs by SRB assay; conditions: NCI-H226, 48 h, read-out: GI
[28] = system: KM12; assay: Cytotoxicity against human KM12 cells at 10 uM after 48 hrs by SRB assay; conditions: KM12, 48 h, read-out: GI
[29] = Cytotoxicity against human HL-60(TB) cells at 10 uM after 48 hrs by SRB assay; conditions: HL-60, 48 h, read-out: GI
[30] = Cytotoxicity against human RXF393 cells at 10 uM after 48 hrs by SRB assay; conditions: RXF 393, 48 h, read-out: GI
[31] = Cytotoxicity against human HCC2998 cells at 10 uM after 48 hrs by SRB assay; conditions: HCC 2998, 48 h, read-out: GI
[32] = system: BT-549; assay: Cytotoxicity against human BT549 cells at 10 uM after 48 hrs by SRB assay
[33] = system: NCI-H460; assay: Cytotoxicity against human NCI-H460 cells at 10 uM after 48 hrs by SRB assay; conditions: NCI-H460, 48 h, read-out: GI
[34] = system: A549; assay: Cytotoxicity against human A549 cells at 10 uM after 48 hrs by SRB assay; conditions: A549, 48 h, read-out: GI
[35] = system: TK-10; assay: Cytotoxicity against human TK10 cells at 10 uM after 48 hrs by SRB assay
[36] = Cytotoxicity against human MOLT4 cells at 10 uM after 48 hrs by SRB assay; conditions: MOLT-4, 48 h, read-out: GI
[37] = system: SR; assay: Cytotoxicity against human SR cells at 10 uM after 48 hrs by SRB assay; conditions: read-out: GI
[38] = Cytotoxicity against human SW620 cells at 10 uM after 48 hrs by SRB assay; conditions: SW-620, 48 h, read-out: GI
[39] = Cytotoxicity against human SNB75 cells at 10 uM after 48 hrs by SRB assay; conditions: SNB-75, 48 h, read-out: GI
[40] = Cytotoxicity against human OVCAR3 cells at 10 uM after 48 hrs by SRB assay; conditions: OVCAR-3, 48 h, read-out: GI
[41] = system: SK-OV-3; assay: Cytotoxicity against human SKOV3 cells at 10 uM after 48 hrs by SRB assay
[42] = Cytotoxicity against human SF539 cells at 10 uM after 48 hrs by SRB assay; conditions: SF-539, 48 h, read-out: GI
[43] = system: SNB-19; assay: Cytotoxicity against human SNB19 cells at 10 uM after 48 hrs by SRB assay
[44] = Cytotoxicity against human OVCAR4 cells at 10 uM after 48 hrs by SRB assay; conditions: OVCAR-4, 48 h, read-out: GI
[45] = Cytotoxicity against human PC3 cells at 10 uM after 48 hrs by SRB assay; conditions: PC-3, 48 h, read-out: GI
[46] = Cytotoxicity against human UO31 cells at 10 uM after 48 hrs by SRB assay; conditions: UO-31, 48 h, read-out: GI
[47] = system: MDA-MB-231; assay: Cytotoxicity against human MDA-MB-231 cells at 10 uM after 48 hrs by SRB assay; conditions: MDA-MB-231, 48 h, read-out: GI
[48] = system: NCI/ADR-RES; assay: Cytotoxicity against human NCI-ADR-RES cells at 10 uM after 48 hrs by SRB assay
[49] = Cytotoxicity against human SF295 cells at 10 uM after 48 hrs by SRB assay; conditions: SF-295, 48 h, read-out: GI
[50] = Cytotoxicity against human UACC62 cells at 10 uM after 48 hrs by SRB assay; conditions: UACC-62, 48 h, read-out: GI
[51] = Cytotoxicity against human HOP62 cells at 10 uM after 48 hrs by SRB assay; conditions: HOP-62, 48 h, read-out: GI
[52] = system: MDA-MB-468; assay: Cytotoxicity against human MDA-MB-468 cells at 10 uM after 48 hrs by SRB assay; conditions: MDA-MB-468, 48 h, read-out: GI
[53] = Cytotoxicity against human UACC257 cells at 10 uM after 48 hrs by SRB assay; conditions: UACC-257, 48 h, read-out: GI
[54] = system: COLO 205; assay: Cytotoxicity against human COLO205 cells at 10 uM after 48 hrs by SRB assay
[55] = Cytotoxicity against human SF268 cells at 10 uM after 48 hrs by SRB assay; conditions: SF-268, 48 h, read-out: GI
[56] = system: Malme-3M; assay: Cytotoxicity against human MALME-3M cells at 10 uM after 48 hrs by SRB assay; conditions: read-out: GI

Cc1nc2cc(Nc3nc(Nc4ccc(O)cc4)nc(Nc4ccc(F)cc4)n3)ccc2n1Cc1ccccc1
inhibition of growth at 10 µM [1]: 22.2%
inhibition of growth at 10 µM [2]: 15.1%
growth inhibition (GI) [3]: inactive
inhibition of growth at 10 µM [4]: 21.3%
inhibition of growth at 10 µM [5]: 26.7%
inhibition of growth at 10 µM [6]: 17.3%
inhibition of growth at 10 µM [7]: 13.4%
inhibition of growth at 10 µM [8]: 41.6%
inhibition of growth at 10 µM [9]: 5.6%
inhibition of growth at 10 µM [10]: 3.79%
growth inhibition (GI) [11]: inactive
growth inhibition (GI) [12]: inactive
inhibition of growth at 10 µM [13]: 2.54%
inhibition of growth at 10 µM [14]: 8.7%
inhibition of growth at 10 µM [15]: 1.42%
inhibition of growth at 10 µM [16]: 2.23%
inhibition of growth at 10 µM [17]: 8.15%
growth inhibition (GI) [18]: inactive
inhibition of growth at 10 µM [19]: 10.6%
inhibition of growth at 10 µM [20]: 4.26%
inhibition of growth at 10 µM [21]: 17.8%
inhibition of growth at 10 µM [22]: 6.04%
inhibition of growth at 10 µM [23]: 4.8%
inhibition of growth at 10 µM [24]: 16%
inhibition of growth at 10 µM [25]: 4.53%
inhibition of growth at 10 µM [26]: 3.66%
inhibition of growth at 10 µM [27]: 12.8%
inhibition of growth at 10 µM [28]: 17.6%
inhibition of growth at 10 µM [29]: 6.96%
inhibition of growth at 10 µM [30]: 18.8%
inhibition of growth at 10 µM [31]: 4.67%
growth inhibition (GI) [32]: inactive
inhibition of growth at 10 µM [33]: 18.2%
inhibition of growth at 10 µM [34]: 22.2%
growth inhibition (GI) [35]: inactive
inhibition of growth at 10 µM [36]: 19.8%
inhibition of growth at 10 µM [37]: 20.8%
inhibition of growth at 10 µM [38]: 18.8%
inhibition of growth at 10 µM [39]: 15.1%
inhibition of growth at 10 µM [40]: 8.38%
growth inhibition (GI) [41]: inactive
inhibition of growth at 10 µM [42]: 6.34%
growth inhibition (GI) [43]: inactive
inhibition of growth at 10 µM [44]: 12.8%
inhibition of growth at 10 µM [45]: 10.7%
inhibition of growth at 10 µM [46]: 6.02%
inhibition of growth at 10 µM [47]: 11.3%
growth inhibition (GI) [48]: inactive
inhibition of growth at 10 µM [49]: 5.35%
inhibition of growth at 10 µM [50]: 3.94%
inhibition of growth at 10 µM [51]: 3.47%
inhibition of growth at 10 µM [52]: 13.4%
inhibition of growth at 10 µM [53]: 3.73%
growth inhibition (GI) [54]: inactive
inhibition of growth at 10 µM [55]: 11.2%
inhibition of growth at 10 µM [56]: 0.89%
